Results reported in PubChem BioAssay (NCI).
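Following 48 hours of exposure in 96-well plates, responses at five concentrations were used to interpolate endpoints linearly. TGI: total growth inhibition.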

Experiments:
Experiment in all cases: NCI tumour cell line growth inhibition, 48 h
[1] = test system: 786-0 renal
[2] = test system: A498 renal
[3] = test system: A549 NSCLC
[4] = test system: ACHN renal
[5] = test system: BT-549 breast
[6] = test system: CAKI-1 renal
[7] = test system: CCRF-CEM leukemia
[8] = test system: COLO 205 colon
[9] = test system: DU-145 prostate
[10] = test system: EKVX NSCLC
[11] = test system: HCT-116 colon
[12] = test system: HCT-15 colon
[13] = test system: HL-60(TB) leukemia
[14] = test system: HOP-62 NSCLC
[15] = test system: HOP-92 NSCLC
[16] = test system: HS 578T breast
[17] = test system: HT29 colon
[18] = test system: IGROV1 ovarian
[19] = test system: K-562 leukemia
[20] = test system: KM12 colon
[21] = test system: LOX IMVI melanoma
[22] = test system: M14 melanoma
[23] = test system: MALME-3M melanoma
[24] = test system: MDA-MB-231 breast
[25] = test system: MDA-MB-435
[26] = test system: MDA-N
[27] = test system: MOLT-4 leukemia
[28] = test system: NCI-H226 lung
[29] = test system: NCI-H23 lung
[30] = test system: NCI-H460 lung
[31] = test system: NCI-H522 lung
[32] = test system: NCI/ADR-RES ovarian
[33] = test system: OVCAR-3 ovarian
[34] = test system: OVCAR-4 ovarian
[35] = test system: OVCAR-5 ovarian
[36] = test system: OVCAR-8 ovarian
[37] = test system: PC-3 prostate
[38] = test system: RPMI-8226 leukemia
[39] = test system: RXF 393 renal
[40] = test system: SF-268 CNS
[41] = test system: SF-295 CNS
[42] = test system: SF-539 CNS
[43] = test system: SK-MEL-2 melanoma
[44] = test system: SK-MEL-28 melanoma
[45] = test system: SK-MEL-5 melanoma
[46] = test system: SK-OV-3 ovarian
[47] = test system: SN12C renal
[48] = test system: SNB-19 CNS
[49] = test system: SR leukemia
[50] = test system: SW-620 colon
[51] = test system: T-47D breast
[52] = test system: TK-10 renal
[53] = test system: U251 CNS
[54] = test system: UACC-257 melanoma
[55] = test system: UACC-62 melanoma
[56] = test system: UO-31 renal
[57] = test system: HCC-2998 colon
[58] = test system: MCF7 breast
[59] = test system: SNB-75 CNS

Measured: TGI

Cc1ccc(-c2sc(-c3ccc(C)cc3)c3c2C2CCC3C2)cc1
not listed: [57] | [58] | [59]
> 50 µM: all other assays above

CCCCOC(=O)C(=O)C(CC(C(=O)Cc1ccccc1)c1ccccc1)C(=O)C=C(C)C (centres undefined)
not listed: [2] | [19] | [23] | [38] | [49] | [51]
> 100 µM: all other assays above
